This note sets out measurements from US12085534B2, “Multiplexable super-resolution force spectroscopy using ultrasound methods and magnetic detection” (University of Houston System, priority 2018, dated 2024).

The assay has as its system 11-bp DNA: ds(CCAAT CGA CCC). The assay is described as follows: SURFS force spectrum of drug-bound DNA duplex (dissociation voltage). It is filed as binding. As to conditions: daunomycin-11-bp DNA vs 12-bp DNA. How it is done: A piezo plate was placed on a piece of rubber. On top of the piezo, a water reservoir was constructed. The sample was mounted on a glass rod for scanning. The bottom of the sample, which contains the immobilized molecular system, makes contact with the water surface prior to ultrasound application. The water level was carefully monitored to be constant during experiment. […] A DNA duplex with 12-basepair (bp) was used to calculate the force resolution. The dissociation voltage was determined to be 0.204 V on the function generator, with ±0.001 V resolution. […] Because the acoustic radiation force is proportional to the ultrasound power, or V^2, the force resolution can be calculated as δF=(2δV/V)*F=(2*0.001/0.204)*45=0.5 pN (1)
In FIG. 4a, the force spectra of 12-bp DNA and daunomycin bound 11-bp DNA are compared. The two dissociation voltages were well distinguished, with the former at 0.204 V and the latter at 0.226 V. However, previous techniques of the prior art cannot distinguish the two forces, which are 45^±2 and 48^±2 pN respectively.

For the compound `COc1cccc2c1C(=O)c1c(O)c3c(c(O)c1C2=O)C[C@@](O)(C(C)=O)C[C@@H]3O[C@H]1C[C@H](N)[C@H](O)[C@H](C)O1` [daunomycin], the “binding strength compared with 12-bp DNA” value is listed as “stronger than 12-bp DNA”.
